Reference: patent US9216179B2, “Treatment of gout and hyperuricemia” (ARDEA BIOSCIENCES, INC., priority 2010, dated 2015)

Columns and labels:
[1] = test system: gout patients with elevated uric acid levels; conditions: for serious adverse events or deaths: Phase 2b study, 28 days
Experimental: In some embodiments, for patients randomized to receive 400 mg a compound of formula I and 600 mg of a compound of formula I, a daily dose of compound of formula I was escalated weekly in increments of 200 mg/day.

Patients [2] = assay: Example 4 A: allopurinol 300 mg QD for 1 week followed by compound of Formula I, serum uric acid; type: in vivo, human
Experimental: A: Patients received allopurinol 300 mg QD for 1 week followed by a compound of Formula I. A compound of Formula I (200 mg) reduced serum uric acid levels 9% beyond the reduction observed for allopurinol alone. Titration up to 400 mg of a compound of Formula I provided further reduction of serum uric acid levels by 6%. The combination of a compound of Formula I (400 mg) and allopurinol provided 100% response (i.e., sUA <6 mg/dL) and an 80% sUA reduction below 5 mg/dL. These responses are illustrated in FIG. 6.

patients with gout = assay: Phase II gout dose response study, Lesinurad versus placebo (incidence of gout flares); type: in vivo, human
Experimental: Purpose: To compare the proportion of subjects whose serum urate (sUA) level is <6.0 mg/dL after 28 days of dosing by treatment group.
Official Title: Randomized, Double-Blind, Multicenter, Placebo-Controlled, Safety and Efficacy Study of Lesinurad Versus Placebo in the Treatment of Hyperuricemia in Patients With Gout
Experimental Dosage Form: 200 mg capsule of Lesinurad, with appropriate pharmaceutically acceptable excipients
Primary Outcome Measures: Compare the proportion of subjects whose serum urate (sUA) level is <6.0 mg/dL after 28 days of dosing by treatment group.
Secondary Outcome Measures: • Evaluate the proportion of subjects with sUA levels <6.0 mg/dL at each weekly study visit. • Evaluate absolute and percent reduction from baseline in sUA levels at each weekly study visit. • Evaluate the percent change in 24-hr urine urate level (excretion) from baseline to Day 28. • Evaluate the incidence of gout flares. • Evaluate the safety and tolerability of Lesinurad in subjects with gout.
Inclusion Criteria: • Male or post-menopausal or surgically sterile female. • Hyperuricemic (i.e., screening sUA ≧8 mg/dL). • Meets criteria for the diagnosis of gout as per the American Rheumatism Association (ARA) Criteria for the Classification of Acute Arthritis of Primary Gout (see Appendix B). • Willing and able to give informed consent and adhere to visit/protocol schedules (informed consent must be given before the first study procedure is performed).
Results: Incidence of gout flares are presented in Table 2 below indicating the majority of flares occurred in the first week when patients were receiving 200 mg QD (6/10 total flares on drug). Few additional flares occurred as dose increased, even with greater decrease in sUA. Duration of flares is shorter at higher doses, the opposite of what would be expected with greater reduction in sUA.

[3] = test system: gout patients with sUA greater than 8 mg/dL; assay: Example 6: open-label clinical pharmacology study, combination with febuxostat; conditions: for increases in serum creatinine (Grade): human, in vivo
Experimental: Also provided herein in certain embodiments is an open-label, clinical pharmacology study including 2 cohorts of gout patients with sUA greater than 8 mg/dL on no urate-lowering therapy. In some embodiments, patients received colchicine beginning one week prior to baseline and continuing for 5 weeks for flare prophylaxis. In other embodiments, the first cohort of patients in the study consisted of gout patients with a median baseline sUA of 9.2 mg/dL who were administered 40 mg febuxostat for the first week, 40 mg febuxostat in combination with 400 mg of a compound of formula I for the second week, and then 40 mg febuxostat in combination with 600 mg of a compound of formula I for the third week. […] In some embodiments, less than 40 mg, greater than 40 mg, less than 80 mg, greater than 80 mg, or any suitable amount of febuxostat was administered.
This 21-patient, open-label, clinical pharmacology study included 2 cohorts of gout patients with sUA greater than 8 mg/dL on no urate-lowering therapy. All patients received colchicine beginning one week prior to baseline and continuing for 5 weeks for flare prophylaxis.

[4] = test system: gout patients with sUA greater than 8 mg/dL; assay: Example 7: open-label clinical pharmacology study, combination with allopurinol; type: in vivo, human
Experimental: This 20-patient, open-label clinical pharmacology study included 2 cohorts of gout patients with sUA greater than 8 mg/dL on no urate-lowering therapy who began colchicine dosing one week prior to baseline and continued for 5 weeks. […] Elevations in CK and rhabdomyolysis are known side effects of colchicine.

IL-1 = IL-1 release/production after stimulation (FIG. 1, FIG. 3)
TNF-α = TNF-α production (FIG. 2); conditions: FIG. 2, 6 hour time point
[5] = test system: individuals treated with the drug; conditions: in vivo; cited from earlier work
Patients [6] = conditions: Allopurinol Alone
Experimental: B: Patients received allopurinol alone for one week. For the second week, Panel 1 received a compound of Formula I (400 mg) and Panel 2 received a compound of Formula I (600 mg) in combination with allopurinol 300 mg.

gout patients = conditions: controlled trials; cited from earlier work
[7] = test system: individuals treated with probenecid; conditions: in vivo; cited from earlier work
[8] = test system: monosodium urate crystal-induced inflammatory response; assay: rat air pouch model of crystal-induced arthropathy; type: in vivo, Sprague-Dawley rats; conditions: PO 10, 30, 100 mg/kg; 150 mg MSU; FIGS. 4 and 5
Experimental: • 1. […] NaOH was added as required to maintain pH between 8-9. The solution was filtered and incubated at ambient with slow stirring continuously for 24 hours. • b. Crystals were washed, dried and sterilized by autoclaving. • c. Crystals were suspended in sterile saline at 0.67 mg/ml, 2.67 mg/ml and 10 mg/ml just prior to use. • 2. 110 Sprague-Dawley rats (male, 160-180 g) were obtained. Following quarantine, rats were accepted for the Study if no signs of clinical distress were noted during the 3-day quarantine period. The rats were maintained on certified laboratory diet and water ad libitum. • 3. The rats were ear-notched for individual identification. • 4. The rat weights were recorded. • 5. […] Exudates volume was measured and recorded for each animal. • a. […] Plasma extravasation was measured by optical absorbance at 620 nm for each exudate sample. • 14. […] Mean cell counts and standard deviations were determined for each group. • b. Mean optical absorbance measurements and standard deviations were determined for each group. • c. Group means and standard deviations for TNF-alpha and IL-1 were determined for each group. • d. Statistical significance of treatments on mean cell counts, mean optical absorbance measurements and mean cytokine measurements were determined by comparison of means for treatment and positive control groups with vehicle group.

[9] = Placebo qd + allopurinol, sUA <6 mg/dL after 4 weeks
[10] = Cohort 1, allopurinol 300 mg alone
[11] = Cohort 2, allopurinol 300 mg alone
[12] = Cohort 1, febuxostat 40 mg alone
[13] = Cohort 2, febuxostat 80 mg alone

## O=C(O)CSc1nnc(Br)n1-c1ccc(C2CC2)c2ccccc12 [Formula I, 2-(5-bromo-4-(4-cyclopropylnaphthalen-1-yl)-4H-1,2,4-triazol-3-ylthio)acetic acid]
[1]
  serious adverse events or deaths: no serious adverse events or deaths
Patients [2]; Formula I 200 mg after allopurinol 300 mg QD for 1 week
  reduction of serum uric acid levels beyond the reduction observed for allopurinol alone: 9%
Patients [2]; titration up to 400 mg
  further reduction of serum uric acid levels: 6%
Patients with gout; 200 mg at time of flare
  % of patients with Flares by Dose at Time of Flare: 6% (6/96)
  Mean Duration of Flares (by Dose at Time of Flare): 4 days
Patients with gout; 400 mg at time of flare
  % of patients with Flares by Dose at Time of Flare: 2% (1/65)
  Mean Duration of Flares (by Dose at Time of Flare): 2 days
Patients with gout; 600 mg at time of flare
  % of patients with Flares by Dose at Time of Flare: 9% (3/32)
  Mean Duration of Flares (by Dose at Time of Flare): 1.7 days
Patients with gout; Randomized Dose Group 200 mg
  Mean Duration of Flares: 4 days
Patients with gout; Randomized Dose Group 200 mg qd for 28 days
  % Patients with Flares: 6%
Patients with gout; Randomized Dose Group 400 mg
  Mean Duration of Flares: 3.8 days
Patients with gout; Randomized Dose Group 400 mg (200 mg 7 days, 400 mg 21 days)
  % Patients with Flares: 12%
Patients with gout; Randomized Dose Group 600 mg
  Mean Duration of Flares: 1.5 days
Patients with gout; Randomized Dose Group 600 mg (200 mg 7 days, 400 mg 7 days, 600 mg 14 days)
  % Patients with Flares: 13%
[3]; addition of 600 mg to 40 mg febuxostat
  additional sUA reduction compared to febuxostat alone: 39%
[3]; addition of 600 mg to 80 mg febuxostat
  additional sUA reduction compared to febuxostat alone: 51%
[3]
  increases in serum creatinine (Grade): no Grade 2 or higher increases
[4]; Cohort 1, 400 mg alone
  Percent patients <5 mg/dL: 0%
  Percent sUA change at trough (median, from baseline): −28%
  Percent sUA change intraday (median, from baseline): −44%
  Response rate (<6 mg/dL): 20%
[4]; Cohort 2, 600 mg alone
  Percent patients <5 mg/dL: 33%
  Percent sUA change at trough (median, from baseline): −39%
  Percent sUA change intraday (median, from baseline): −54%
[4]; Cohort 2, 600 mg alone, listed as 2-(5-bromo-4-(4-cyclopropylnaphthalen-1-yl)-4H-1,2,4-triazol-3-ylthio)acetate
  Response rate (<6 mg/dL): 67%
[4]; human, in vivo
  serious adverse events or discontinuations considered possibly related: no serious adverse events or discontinuations

## rilonacept
IL-1; FIG. 3
  IL-1 production: does not reduce
TNF-α
  production of TNF-α: inhibits

## Oc1ncnc2[nH]ncc12 [allopurinol]
[5]
  incidence of side effects, of all individuals treated: 20%
[1]
  serious adverse events or deaths: fatal myocardial infarction
[1]; Placebo qd + allopurinol
  Mean Change in Serum Urate at Week 4 vs. Baseline on Allopurinol Alone: +3%
[1]; [9]
  Response Rate (ITT Analysis): 25%
  Response Rate (LOCF Analysis): 29%
[1]; human, in vivo
  patients who discontinued treatment due to an adverse event: three
Patients [6]
  % Patients <4 mg/dL: 0%
  % Patients <5 mg/dL: 9%
  Response: % Patients <6 mg/dL: 63%
  sUA Mean % Reduction: 32%
Gout patients
  gout patients responding adequately (sUA less than 6 mg/dL): 30-40%
[4]; 300 mg allopurinol alone
  patients achieving target sUA levels below 6 mg/dL: 20%
[4]; Cohort 1 (median baseline 9.8 mg/dL), allopurinol 300 mg alone
  Response rate (<6 mg/dL): 10%
[4]; [10]
  Percent patients <5 mg/dL: 5%
  Percent sUA change at trough (median, from baseline): −31%
  Percent sUA change intraday (median, from baseline): −38%
[4]; Cohort 2 (median baseline 9.1 mg/dL), allopurinol 300 mg alone
  Response rate (<6 mg/dL): 30%
[4]; [11]
  Percent patients <5 mg/dL: 5%
  Percent sUA change at trough (median, from baseline): −27%
  Percent sUA change intraday (median, from baseline): −35%

## COc1cc2c(c(OC)c1OC)-c1ccc(OC)c(=O)cc1[C@@H](NC(C)=O)CC2 [colchicine]
[3]
  increases in serum creatinine (Grade): one Grade 2 serum creatinine increase

## CCCN(CCC)S(=O)(=O)c1ccc(C(=O)O)cc1 [probenecid]
[7]
  individuals developing intolerance: one-third
  individuals failing to achieve reduction of serum uric acid levels <6 mg/dL: 25-50%

## O=C([O-])CSc1nnc(Br)n1-c1ccc(C2CC2)c2ccccc12.[Na+] [compound 1, 2-(5-Bromo-4-(4-cyclopropylnaphthalen-1-yl)-4H-1,2,4-triazol-3-ylthio)acetate sodium salt]
IL-1; FIG. 1
  blocks IL-1 release, time after stimulation: ≤ 1 h
[8]
  monosodium urate crystal-induced inflammatory response: blocked

## Cc1nc(-c2ccc(OCC(C)C)c(C#N)c2)sc1C(=O)O [febuxostat]
[3]; Cohort 1 (median baseline 9.2 mg/dL), febuxostat 40 mg alone
  Response rate (<6 mg/dL): 67%
[3]; Cohort 1 (median baseline 9.2 mg/dL), febuxostat 40 mg alone, listed as Febuxostat
  Response rate (<6 mg/dL): 67%
[3]; [12]
  Percent patients <4 mg/dL: 0%
  Percent sUA change at trough (median, from baseline): −35%
  Percent sUA change intraday (median, from baseline): −44%
[3]; Cohort 2 (median baseline […]), febuxostat 80 mg alone
  Response rate (<6 mg/dL): 56%
[3]; Cohort 2 (median baseline […]), febuxostat 80 mg alone, listed as Febuxostat
  Response rate (<6 mg/dL): 56%
[3]; [13]
  Percent patients <4 mg/dL: 0%
  Percent sUA change at trough (median, from baseline): −47%
  Percent sUA change intraday (median, from baseline): −52%
[3]; either dose of febuxostat alone
  patients achieving sUA levels below 4 mg/dL or below 3 mg/dL: No patient
